The source of these data is PMC9025901, “New Genetic Bomb Trigger: Design, Synthesis, Molecular Dynamics Simulation, and Biological Evaluation of Novel BIBR1532-Related Analogs Targeting Telomerase against Non-Small Cell Lung Cancer” (Pharmaceuticals, 2022).

In one data set the target is T1, telomerase (Homo sapiens, UniProt O14746).
T1 construct: A549 cells (human epithelial cell lung carcinoma, ATCC, Manassas, VA) were lysed in; host or cells: A549 cell lysate (CHAPS extract, 5 µg total protein)
The experiment in a line: TRAP / RTQ-TRAP telomerase activity assay in A549 cell-free lysates.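 Note: telomerase activity measured in cell-free extracts of human A549 epithelial lung carcinoma cells, tested across a range of inhibitor concentrations.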 Conditions: telomerase inhibition, mean ± SEM. Format: biochemical.

On the set-up of data set [1]: method as in PMID 18256617, PMID 32733068, PMID 32125789. The settings on record: cited from earlier work.
The target in data set [2] is T2, telomerase inside living cancer cells NCI-H23 (Homo sapiens, UniProt O14746).
T2 construct: host or cells: NCI-H23
The experiment in a line: Living-cell TRAP assay, NCI-H23. In kind it is cell-based. Conditions: percent of control cells, 10 µM, 48 h.
Description: (§1) The Telomeric Repeat Amplification Protocol (TRAP) [61] was used to evaluate the activity of telomerase, with some changes that we have previously described [62, 63]. A549 cells (human epithelial cell lung carcinoma, ATCC, Manassas, VA) were lysed in (10 mM) Tris-HCl, pH 7.5, (1 mM) EGTA, (1 mM) MgCl2, (5 mM) 2-mercaptoethanol, (0.1 mM) PMSF, (0.5%) CHAPS, and (10%) glycerol (Sigma-Aldrich, St. Louis, MO, USA) and centrifugation. The supernatants were kept at -80 °C. The BCA-1 Protein Assay Kit was used to assess the protein concentration in cell extracts (Sigma-Aldrich, St. Louis, MO, USA). […] To inactivate telomerase, the cells were elongated for 30 min at 37 °C and 10 min at 96 °C. Copy CX-primer was added to the elongation mixture along with 0.1 μL ([NT]) and 2.5 units Taq-polymerase, followed by the following PCR: 94 °C for 5 min; 30 cycles of 94 °C for 30 s, 50 °C for 30 s, and 72 °C for 40 s, and 72 °C for 5 min. TBE buffer and (12%) nondenaturing PAAG electrophoresis were used to visualize the PCR product. 10 μL of each sample was placed in each well of gel comb. The gels were stained with the SYBR Green I (Invitrogen, Grand Island, NY, USA), then photographed under the UV light in ChemiDocTM XRS imaging system and analyzed with GelAnalyzer 2010.

Data set [3] has as its target T3, telomerase inside living cancer cells A549 (Homo sapiens, UniProt O14746).
T3 construct: host or cells: A549
The experiment in a line: Living-cell TRAP assay, A549. Format: cell-based. Conditions: percent of control cells, 10 µM, 48 h.
Description: as §1

The target of data set [4] is T4, telomerase inside living cancer cells HCC44 (Homo sapiens, UniProt O14746).
T4 construct: host or cells: HCC44
Description: Living-cell TRAP assay, HCC44. In kind it is cell-based. Conditions: percent of control cells, 10 µM, 48 h.
Description: as §1

Data set [5] concerns advanced non-small cell lung cancer. Details: method as in PMID 32733068, PMID 25467017. Conditions: phase II clinical trials, patients with advanced non-small cell lung cancer; cited from earlier work.

T1 sequence (O14746 whole entry): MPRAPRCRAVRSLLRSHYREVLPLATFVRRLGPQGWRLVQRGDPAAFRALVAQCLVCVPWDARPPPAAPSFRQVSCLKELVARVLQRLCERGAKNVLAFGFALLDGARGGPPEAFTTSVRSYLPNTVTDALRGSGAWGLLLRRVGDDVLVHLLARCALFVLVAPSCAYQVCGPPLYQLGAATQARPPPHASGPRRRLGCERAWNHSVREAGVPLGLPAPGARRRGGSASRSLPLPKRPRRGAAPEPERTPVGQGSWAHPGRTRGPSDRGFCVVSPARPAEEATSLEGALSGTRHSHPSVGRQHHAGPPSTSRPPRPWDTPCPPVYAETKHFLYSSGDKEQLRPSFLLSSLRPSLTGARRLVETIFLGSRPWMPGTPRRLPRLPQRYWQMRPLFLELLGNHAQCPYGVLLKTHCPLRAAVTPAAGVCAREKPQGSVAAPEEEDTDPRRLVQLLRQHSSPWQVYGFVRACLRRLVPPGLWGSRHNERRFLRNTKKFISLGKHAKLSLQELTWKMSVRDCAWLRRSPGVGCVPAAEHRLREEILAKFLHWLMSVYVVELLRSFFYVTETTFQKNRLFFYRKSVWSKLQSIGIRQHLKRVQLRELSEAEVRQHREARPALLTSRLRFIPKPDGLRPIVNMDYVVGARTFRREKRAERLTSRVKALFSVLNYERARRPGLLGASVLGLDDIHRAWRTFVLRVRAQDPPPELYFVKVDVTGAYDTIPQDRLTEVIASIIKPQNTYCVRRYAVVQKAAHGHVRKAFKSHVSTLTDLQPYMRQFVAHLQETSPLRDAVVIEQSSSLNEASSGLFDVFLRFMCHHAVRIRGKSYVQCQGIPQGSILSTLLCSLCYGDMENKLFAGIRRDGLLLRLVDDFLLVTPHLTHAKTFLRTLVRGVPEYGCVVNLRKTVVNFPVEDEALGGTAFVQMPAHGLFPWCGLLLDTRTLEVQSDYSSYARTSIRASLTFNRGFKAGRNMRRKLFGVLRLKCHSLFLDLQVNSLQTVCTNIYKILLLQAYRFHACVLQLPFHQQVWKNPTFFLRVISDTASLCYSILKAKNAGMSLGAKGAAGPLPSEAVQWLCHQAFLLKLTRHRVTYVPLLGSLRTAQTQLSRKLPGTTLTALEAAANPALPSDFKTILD
T1 sequence (O60832 whole entry partner): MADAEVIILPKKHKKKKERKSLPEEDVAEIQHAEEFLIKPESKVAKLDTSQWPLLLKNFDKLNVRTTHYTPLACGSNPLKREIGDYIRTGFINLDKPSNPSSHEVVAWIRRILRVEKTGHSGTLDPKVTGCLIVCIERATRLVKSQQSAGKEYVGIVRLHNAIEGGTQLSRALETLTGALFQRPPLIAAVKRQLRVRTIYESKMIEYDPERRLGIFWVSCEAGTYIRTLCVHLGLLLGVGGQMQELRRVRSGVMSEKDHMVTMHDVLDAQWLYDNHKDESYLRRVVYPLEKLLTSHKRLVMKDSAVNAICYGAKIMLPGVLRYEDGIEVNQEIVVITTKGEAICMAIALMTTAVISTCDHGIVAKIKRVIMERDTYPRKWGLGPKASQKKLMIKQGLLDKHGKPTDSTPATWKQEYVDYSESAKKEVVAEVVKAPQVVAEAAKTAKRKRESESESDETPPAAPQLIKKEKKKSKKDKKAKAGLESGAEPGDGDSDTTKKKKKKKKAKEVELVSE
T1 sequence (Q9NX24 whole entry partner): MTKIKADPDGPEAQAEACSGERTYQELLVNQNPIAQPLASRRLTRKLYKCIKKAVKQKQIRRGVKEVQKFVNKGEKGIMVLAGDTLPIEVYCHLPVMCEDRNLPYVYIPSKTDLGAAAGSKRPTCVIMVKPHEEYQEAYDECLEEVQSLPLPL
T1 sequence (Q9NPE3 whole entry partner): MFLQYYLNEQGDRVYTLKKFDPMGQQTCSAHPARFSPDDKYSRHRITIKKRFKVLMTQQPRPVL
T1 sequence (Q9NY12 whole entry partner): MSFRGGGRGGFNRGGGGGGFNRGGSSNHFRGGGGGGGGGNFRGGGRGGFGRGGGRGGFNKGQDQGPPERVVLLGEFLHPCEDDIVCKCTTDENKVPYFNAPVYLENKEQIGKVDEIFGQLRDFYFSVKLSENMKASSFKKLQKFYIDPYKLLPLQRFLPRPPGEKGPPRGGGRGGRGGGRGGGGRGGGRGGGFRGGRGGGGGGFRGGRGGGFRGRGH
T1 sequence (Q9BUR4 whole entry partner): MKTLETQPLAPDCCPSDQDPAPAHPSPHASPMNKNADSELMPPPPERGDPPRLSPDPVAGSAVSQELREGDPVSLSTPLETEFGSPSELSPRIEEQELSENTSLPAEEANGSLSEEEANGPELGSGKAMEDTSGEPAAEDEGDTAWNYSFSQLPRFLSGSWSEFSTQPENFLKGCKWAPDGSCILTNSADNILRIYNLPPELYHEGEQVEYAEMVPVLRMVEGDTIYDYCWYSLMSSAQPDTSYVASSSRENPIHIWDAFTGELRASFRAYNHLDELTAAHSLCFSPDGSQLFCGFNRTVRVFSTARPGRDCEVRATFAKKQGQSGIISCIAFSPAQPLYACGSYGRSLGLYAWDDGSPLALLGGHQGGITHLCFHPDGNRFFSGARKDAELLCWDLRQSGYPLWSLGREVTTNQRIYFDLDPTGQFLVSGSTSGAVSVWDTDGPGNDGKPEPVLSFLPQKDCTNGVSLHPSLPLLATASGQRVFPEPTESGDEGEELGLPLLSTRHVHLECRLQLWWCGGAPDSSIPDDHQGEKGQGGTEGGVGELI
T3 sequence (O14746 whole entry): as the sequence (O14746 whole entry) above
T3 sequence (O60832 whole entry partner): as the sequence (O60832 whole entry partner) above
T3 sequence (Q9NX24 whole entry partner): as the sequence (Q9NX24 whole entry partner) above
T3 sequence (Q9NPE3 whole entry partner): as the sequence (Q9NPE3 whole entry partner) above
T3 sequence (Q9NY12 whole entry partner): as the sequence (Q9NY12 whole entry partner) above
T3 sequence (Q9BUR4 whole entry partner): as the sequence (Q9BUR4 whole entry partner) above
T4 sequence (O14746 whole entry): as the sequence (O14746 whole entry) above
T4 sequence (O60832 whole entry partner): as the sequence (O60832 whole entry partner) above
T4 sequence (Q9NX24 whole entry partner): as the sequence (Q9NX24 whole entry partner) above
T4 sequence (Q9NPE3 whole entry partner): as the sequence (Q9NPE3 whole entry partner) above
T4 sequence (Q9NY12 whole entry partner): as the sequence (Q9NY12 whole entry partner) above
T4 sequence (Q9BUR4 whole entry partner): as the sequence (Q9BUR4 whole entry partner) above
T2 sequence (O14746 whole entry): as the sequence (O14746 whole entry) above
T2 sequence (O60832 whole entry partner): as the sequence (O60832 whole entry partner) above
T2 sequence (Q9NX24 whole entry partner): as the sequence (Q9NX24 whole entry partner) above
T2 sequence (Q9NPE3 whole entry partner): as the sequence (Q9NPE3 whole entry partner) above
T2 sequence (Q9NY12 whole entry partner): as the sequence (Q9NY12 whole entry partner) above
T2 sequence (Q9BUR4 whole entry partner): as the sequence (Q9BUR4 whole entry partner) above

For the compound `C/C(=C\C(=O)Nc1ccccc1C(=O)O)c1ccc2ccccc2c1` [BIBR1532], on telomerase, the 90% effect level (IC90) was put at 5.6 ± 0.02 µM. Also, in data set [1], the cellular uptake result is reported as “low cellular uptake” and the pharmacokinetics entry is listed as “poor pharmacokinetics”.
At telomerase, `N#C/C(=C\c1ccc(N2CCCCC2)cc1)C(=O)Nc1sc2c(c1C#N)CCC2` [Compound 29a, (2E)-2-Cyano-N-{3-cyano-4H,5H,6H-cyclopenta[b]thiophen-2-yl}-3-[4-(piperidin-1-yl)phenyl]prop-2-enamide] yielded an IC50 of 1700 ± 40 nM. The 90% effect concentration (IC90) at telomerase came to 6.3 ± 0.3 µM. Further, the “% Telomerase Activity in Cancer Cells” value in data set [2] is 28.2 ± 3.9%; in data set [3] it was 22.1 ± 4.8%; in data set [4], 66.1 ± 2.4%.
In turn, `N#C/C(=C\c1c[nH]c2ccccc12)C(=O)Nc1sc2c(c1C#N)CCCC2` [Compound 39b, (2E)-2-Cyano-N-(3-cyano-4,5,6,7-tetrahydro-1-benzothiophen-2-yl)-3-(1H-indol-3-yl)prop-2-enamide] returned a melting point of 284 to 286 °C. Also, on telomerase, the IC50 was found to be 2000 ± 30 nM and the IC90 was 7.1 ± 0.3 µM. The “% Telomerase Activity in Cancer Cells” value in data set [2] amounted to 50.3 ± 5.1%. Also, the “% Telomerase Activity in Cancer Cells” value in data set [3] was determined as 41.5 ± 6.9%. The “% Telomerase Activity in Cancer Cells” value in data set [4] was 75.6 ± 7.9%.
As for Imetelstat, the overall survival result in data set [5] is reported as “no improvement in overall survival”.

One may read the IC90 as the concentration at which the effect reaches the 90% level. Low values mean an effect from little substance, high ones a need for much substance. By IC50 is commonly meant the point on the concentration scale where inhibition reaches its midpoint. Read a low IC50 as greater potency in that assay. The melting point is the temperature, or range, at which the solid turns liquid.
